Results from patent US20240383840A1, “AMINE-N-OXIDE COMPOUNDS” (Karl Franzens Universität Graz, priority 2021, published 2024).

Assay: Critical micelle concentration (CMC) by Wilhelmy plate method, K100C Force Tensiometer
Type: physicochemical
Conditions: 25° C., pH 3
Procedure: As a parameter for the surfactant properties of the novel amine-N-oxide compounds, as usual, the critical micelle concentration (CMC), i.e. the concentration of the protonated or cationic form of the surfactants at which micelles can form was used and was determined using a K100C Force Tensiometer from Krüss Scientific according to the Wilhelmy plate method at 25° C. and pH 3. For comparison, dodecyldimethylamine N-oxide (“C1”) was measured under the same conditions.

Row | CMC value | Structure (SMILES)
1 | 4.1 mM | CCCCCCCCOc1c(C[N+](C)(C)[O-])cc(CC)cc1OC [Compound 1, N,N-dimethyl-1-(5-ethyl-3-methoxy-2-octyloxyphenyl)methanamine N-oxide]

Same assay, conditions: critical micelle concentration of the protonated or cationic form; Wilhelmy plate method, 25° C., pH 3

Row | CMC | Structure (SMILES)
2 | 36 mmol/L | CCCCCCCCCCCCOc1c(C[N+]2([O-])CCCC2)cc(CC)cc1OC [Compound 7, 1-(2-dodecyloxy-5-ethyl-3-methoxybenzyl)pyrrolidine-1-oxide]
3 | 5.2 mmol/L | CCCCCCCCCCCCCCOc1c(C[N+](C)(C)[O-])cc(CC)cc1OC [Compound 4, N,N-dimethyl-1-(5-ethyl-3-methoxy-2-tetradecyloxyphenyl)methanamine N-oxide]
4 | 4.1 mmol/L | CCCCCCCCOc1c(C[N+](C)(C)[O-])cc(CC)cc1OC [Compound 1, N,N-dimethyl-1-(5-ethyl-3-methoxy-2-octyloxyphenyl)methanamine N-oxide]
5 | 1.3 mmol/L | CCCCCCCCCCCCCCCCCCOc1c(C[N+](C)(C)[O-])cc(CC)cc1OC [Compound 6, N,N-dimethyl-1-(5-ethyl-3-methoxy-2-octadecyloxyphenyl)methanamine N-oxide]
6 | 75 mmol/L | CCCCCCCCCCCCCCCCOc1c(C[N+](C)(C)[O-])cc(CC)cc1C[N+](C)(C)[O-] [Compound 14, 1,1′-(5-ethyl-2-hexadecyloxy-1,3-phenylene)-bis(N,N-dimethylmethanamine N-oxide)]

More lines, now with the values behind:

Row | Structure (SMILES) | CMC
7 | CCCCCCCCCCOc1c(C[N+](C)(C)[O-])cc(CC)cc1OC [Compound 2, N,N-dimethyl-1-(2-decyloxy-5-ethyl-3-methoxyphenyl)methanamine N-oxide] | 570 mmol/L
8 | CCCCCCCCCCCCCCCCCCOc1c(C[N+](C)(C)[O-])cc(CC)cc1C[N+](C)(C)[O-] [Compound 15, 1,1′-(5-ethyl-2-octadecyloxy-1,3-phenylene)-bis(N,N-dimethylmethanamine N-oxide)] | 29 mmol/L
9 | CCCCCCCCCCCCCCCCOc1c(C[N+](C)(C)[O-])cc(CC)cc1OC [Compound 5, N,N-dimethyl-1-(5-ethyl-2-hexadecyloxy-3-methoxyphenyl)methanamine N-oxide] | 4.0 mmol/L
10 | CCCCCCCCCCCCOc1c(C[N+]2([O-])CCCCC2)cc(CC)cc1OC [Compound 8, 1-(2-dodecyloxy-5-ethyl-3-methoxybenzyl)piperidine-1-oxide] | 130 mmol/L
11 | CCCCCCCCCCCC[N+](C)(C)[O-] [Compound C1, dodecyldimethylamine N-oxide, reference compound] | 4200 mmol/L
12 | CCCCCCCCCCCCOc1c(C[N+](C)(C)[O-])cc(CC)cc1OC [Compound 3, N,N-dimethyl-1-(2-dodecyloxy-5-ethyl-3-methoxyphenyl)methanamine N-oxide] | 89 mmol/L
13 | CCCCCCCCCCCCOc1c(C[N+](C)(C)[O-])cc(CC)cc1C[N+](C)(C)[O-] [Compound 13, 1,1′-(2-dodecyloxy-5-ethyl-1,3-phenylene)-bis(N,N-dimethylmethanamine N-oxide)] | 190 mmol/L

Same assay, conditions: second value of the cell, for (3)*; asterisk not explained; otherwise 25° C., pH 3

Row | CMC, value marked (3)* | Structure (SMILES)
14 | 19 mmol/L | CCCCCCCCCCCCOc1c(C[N+](C)(C)[O-])cc(CC)cc1OC [Compound 3, N,N-dimethyl-1-(2-dodecyloxy-5-ethyl-3-methoxyphenyl)methanamine N-oxide]
